target: T1, PI3K gamma (Homo sapiens, UniProt P48736); assay: PI3K gamma kinase assay (Kinase-Glo luminescence); format: biochemical; settings: read-out: PI3Kgamma/IC50
T1 construct: His tag (C); made in house; host or cells: construct from Roger Williams lab (pVL1393); baculovirus BV950; Tn5 (Trichoplusia ni) or TiniPro insect cells
Experimental: In a more preferred assay, the kinase reaction is performed in a final volume of 10 μL per well of a low volume non binding CORNING, 384 well black plate (Cat. No. #3676). The final concentrations of ATP and phosphatidyl inositol (PI) in the assay are 1 μM and 10 μg/mL respectively. The reaction is started by the addition of ATP.
The components of the assay are added per well as follows:
50 nL test compounds in 90% DMSO per well, in columns 1-20, 8 concentrations (⅓ and 1/3.33 serial dilution step) in single. • Low control: […] of 90% DMSO in half the wells of columns 23-24 (0.45% in final). • High control: 50 nL of reference compound (e.g. compound of Example 7 in WO 2006/122806) in the other half of columns 23-24 (2.5 μM in final). • Standard: 50 nL of reference compound as just mentioned diluted as the test compounds in columns 21-22 • 20 mL ‘buffer’ are prepared per assay: • 200 μL of 1M TRIS HCl pH7.5 (10 mM in final) • 60 μL of 1M MgCl2 (3 mM in final) • 500 μL of 2M NaCl (50 mM in final) • 100 μL of 10% CHAPS (0.05% in final) • 200 μL of 100 mM DTT (1 mM in final) • 18.94 mL of nanopure water • 10 mL ‘PI’ are prepared per assay: • 200 μL of 1 mg/ml L-alpha-Phosphatidylinositol (Liver Bovine, Avanti Polar Lipids Cat. No. 840042C MW=909.12) prepared in 3% OctylGlucoside (10 μg/ml in final) • 9.8 mL of ‘buffer’ • 10 mL ‘ATP’ are prepared per assay: • 6.7 μL of 3 mM stock of ATP giving a final concentration of 1 μM per well • 10 mL of ‘buffer’ • 2.5 mL of each PI3K construct are prepared per assay in ‘PI’ with the following final concentration: • 10 nM PI3K alfa EMV B1075 • 25 nM beta EMV BV949 • 10 nM delta EMV BV1060 • 150 nM gamma EMV BV950 • 5 μL of ‘PI/PI3K’ are added per well. • 5 μl ‘ATP’ are added per well to start the reaction. • The plates are then incubated at room temperature for 60 minutes (alfa, beta, delta) or 120 minutes (gamma). • The reaction is terminated by the addition of 10 μL Kinase-Glo (Promega Cat. No. #6714). • The assay plates are read after 10 minutes in Synergy 2 reader (BioTek, Vermont USA) with an integration time of 100 milliseconds and sensitivity set to 191. • Output: The High control is around 60′000 counts and the Low control is 30′000 or lower • This luminescence assay gives a useful Z′ ratio between 0.4 and 0.7
PI3K gamma is purified in two chromatographic steps: immobilized metal affinity chromatography (IMAC) on a Ni Sepharose resin (GE Healthcare) and gel filtration (GFC) utilizing a Superdex 200 26/60 column (GE Healthcare). All buffers are chilled to 4° C. and lysis is performed chilled on ice. Column fractionation is performed rapidly at room temperature. Typically frozen insect cells are lysed in a hypertonic lysis buffer and applied to a prepared IMAC column. The resin is washed with 3-5 column volumes of lysis buffer, followed by 3-5 column volumes wash buffer containing 45 mM imidazole, and the target protein is then eluted with a buffer containing 250 mM imidazole. Fractions are analyzed by Coomassie stained SDS-PAGE gels, and fractions containing target protein are pooled and applied to a prepared GFC column. Fractions from the GFC column are analyzed by Coomassie stained SDS-PAGE gels, and fractions containing target protein are pooled. The final pool is dialyzed into a storage buffer containing 50% glycerol and stored at −20° C. The final pool is assayed for activity in the phosphoinostitol kinase assay.
IC50 is determined by a four parameter curve fitting routine that comes along with “excel fit”. A 4 Parameter logistic equation is used to calculate IC50 values (IDBS XLfit) of the percentage inhibition of each compound at 8 concentrations (usually 10, 3.0, 1.0, 0.3, 0.1, 0.030, 0.010 and 0.003 μM). Alternatively, IC50 values are calculated using idbsXLfit model 204, which is a 4 parameter logistic model.

T1 sequence (P48736 144-1102 limits assumed): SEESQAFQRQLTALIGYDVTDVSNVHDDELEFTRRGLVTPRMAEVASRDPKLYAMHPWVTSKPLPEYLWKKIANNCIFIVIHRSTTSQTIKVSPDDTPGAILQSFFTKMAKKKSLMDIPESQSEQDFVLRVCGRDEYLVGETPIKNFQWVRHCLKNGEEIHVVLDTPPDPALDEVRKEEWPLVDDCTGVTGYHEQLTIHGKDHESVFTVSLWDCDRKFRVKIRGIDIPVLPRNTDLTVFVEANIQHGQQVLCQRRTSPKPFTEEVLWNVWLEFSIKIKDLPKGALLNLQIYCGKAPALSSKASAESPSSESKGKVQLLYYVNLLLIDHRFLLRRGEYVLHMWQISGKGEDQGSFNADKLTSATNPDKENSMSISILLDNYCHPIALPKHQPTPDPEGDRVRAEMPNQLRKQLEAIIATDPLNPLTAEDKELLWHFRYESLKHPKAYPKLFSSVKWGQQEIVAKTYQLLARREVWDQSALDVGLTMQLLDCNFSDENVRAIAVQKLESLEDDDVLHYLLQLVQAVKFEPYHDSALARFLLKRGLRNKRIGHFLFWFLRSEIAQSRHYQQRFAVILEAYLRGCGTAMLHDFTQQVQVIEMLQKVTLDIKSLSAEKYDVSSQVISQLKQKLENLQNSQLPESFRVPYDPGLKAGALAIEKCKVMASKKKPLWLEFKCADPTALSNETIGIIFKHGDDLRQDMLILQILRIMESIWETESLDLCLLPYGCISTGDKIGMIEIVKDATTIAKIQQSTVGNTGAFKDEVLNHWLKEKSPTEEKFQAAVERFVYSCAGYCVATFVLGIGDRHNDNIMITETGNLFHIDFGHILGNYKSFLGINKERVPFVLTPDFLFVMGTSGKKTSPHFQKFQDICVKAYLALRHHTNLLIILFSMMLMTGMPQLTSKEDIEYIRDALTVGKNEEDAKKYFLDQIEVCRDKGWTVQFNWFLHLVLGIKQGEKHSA

| IC50 [nM] | Compound |
| --- | --- |
| 455 | CNC(=O)c1ccc(-c2ccc3ncc4c(c3c2)n(-c2cccnc2C)c(=O)n4C)cc1 [Example 2.4, N-Methyl-4-[3-methyl-1-(2-methyl-pyridin-3-yl)-2-oxo-2,3-dihydro-1H-imidazo[4,5-c]quinolin-8-yl]-benzamide] |
| 464 | Cn1c(=O)n(-c2cccnc2F)c2c3cc(-c4cnc5[nH]ccc5c4)ccc3ncc21 [Example 6.3, 1-(2-Fluoro-pyridin-3-yl)-3-methyl-8-(1H-pyrrolo[2,3-b]pyridin-5-yl)-1,3-dihydro-imidazo[4,5-c]quinolin-2-one] |
| 361 | Cc1ncccc1-n1c(=O)n(C)c2cnc3ccc(-c4cnc5[nH]ccc5c4)cc3c21 [Example 2.8, 3-Methyl-1-(2-methyl-pyridin-3-yl)-8-(1H-pyrrolo[2,3-b]pyridin-5-yl)-1,3-dihydro-imidazo[4,5-c]quinolin-2-one] |
